In patent US4657898A, “N^6 -substituted adenosines and method of use” (Warner-Lambert Company, priority 1985, dated 1987):

Assay: Mouse Activity and Screen Test Procedure (MAST): screen test failure (ST)
Conditions: for MAST ST LAD: lowest dose at which an A rating is achieved, screen test, i.p., mouse; for Inhibition of screen test failure: percent of mice falling off the screen
Protocol: Nine unfasted Swiss-Webster male mice weighing 20-30 g are equally divided into three groups for each drug dose to be tested. That is, data for each dose level was generated by three separate groups of three mice each.
A minimum of three dose levels (10, 30, and 100 mg/kg) are tested for each drug. Treatments are administered intraperitoneally one hour prior to testing. All dosages are calculated as parent compound and given in volumes of 10 ml/kg. Compounds are dissolved or suspended in 0.2% Methocel. Control animals are injected with Methocel.
Testing: A two part testing procedure is started one hour postinjection. First, the screen test (ST) is performed (see Pharmac. Biochem. Behav. 6, 351-353, 1977). Briefly this test consists of placing mice on individual wire screens which are then rotated 180 degrees at the start of a 60 second observation period. The number of mice falling off the inverted screen is recorded.
Data: The data obtained from the screen test are expressed as percent of mice falling off the screen. Data derived from locomotor activity of drug treated mice are compared to the activity of vehicle treated animals and are expressed as percent inhibition of spontaneous locomotion. All percentages reported for inhibition of locomotion (LI) are based upon data accumulated for one hour. Both phases of testing are graded: A=60-100%; C=31-59%; and N=0-30%. An overall dose rating is obtained by the following criteria:
LAD refers to the lowest dose at which an A rating is achieved. […] The compounds are identified in the Examples.

Structure (SMILES) | MAST ST LAD | further results
OC[C@H]1O[C@@H](n2cnc3c(NCC(c4ccc(F)cc4)c4ccc(F)cc4)ncnc32)[C@H](O)[C@@H]1O [Example 13, N^6-(2,2-Di-(4-fluorophenyl)ethyl)adenosine] | > 100 mg/kg | –
OC[C@H]1O[C@@H](n2cnc3c(NCC(c4ccccc4)c4cccc(Cl)c4)ncnc32)[C@H](O)[C@@H]1O (stereo partly drawn) [Example 14, N^6-(2-(3-Chlorophenyl)-2-phenylethyl)adenosine] | > 100 mg/kg | –
OC[C@H]1O[C@@H](n2cnc3c(NCCCC(c4ccccc4)c4ccccc4)ncnc32)[C@H](O)[C@@H]1O [Example 6, N^6-(4,4-Diphenylbutyl)adenosine] | > 100 mg/kg | –
OC[C@H]1O[C@@H](n2cnc3c(NCC(c4ccccc4)c4ccccc4)nc(Cl)nc32)[C@H](O)[C@@H]1O [Example 3, N^6-(2,2-Diphenylethyl)-2-chloroadenosine] | > 100 mg/kg | Inhibition of screen test failure (10 mg/kg i.p.): 0%; Inhibition of screen test failure (30 mg/kg i.p.): 11%; Inhibition of screen test failure (100 mg/kg i.p.): 44%
Cc1cccc(C(CNc2ncnc3c2ncn3[C@@H]2O[C@H](CO)[C@@H](O)[C@H]2O)c2ccccc2)c1 (stereo partly drawn) [Example 9, N^6-(2-(3-Methylphenyl)-2-phenylethyl)adenosine] | 100 mg/kg | –
CC(CNc1ncnc2c1ncn2[C@@H]1O[C@H](CO)[C@@H](O)[C@H]1O)(c1ccccc1)c1ccccc1 [Example 8, N^6-(2,2-Diphenylpropyl)adenosine] | > 100 mg/kg | –
OC[C@H]1O[C@@H](n2cnc3c(NCCC(c4ccccc4)c4ccccc4)ncnc32)[C@H](O)[C@@H]1O [Example 2, N^6-(3,3-Diphenylpropyl)adenosine] | > 100 mg/kg | Inhibition of screen test failure (10 mg/kg i.p.): 0%; Inhibition of screen test failure (30 mg/kg i.p.): 0%; Inhibition of screen test failure (100 mg/kg i.p.): 0%
OC[C@H]1O[C@@H](n2cnc3c(NCCCCC(c4ccccc4)c4ccccc4)ncnc32)[C@H](O)[C@@H]1O [Example 7, N^6-(5,5-Diphenylpentyl)adenosine] | > 100 mg/kg | –
Nc1nc(NCC(c2ccccc2)c2ccccc2)c2ncn([C@@H]3O[C@H](CO)[C@@H](O)[C@H]3O)c2n1 [Example 4, N^6-(2,2-Diphenylethyl)-2-aminoadenosine] | > 100 mg/kg | Inhibition of screen test failure (10 mg/kg i.p.): 0%; Inhibition of screen test failure (30 mg/kg i.p.): 11%; Inhibition of screen test failure (100 mg/kg i.p.): 22%
OC[C@H]1O[C@@H](n2cnc3c(NCC(c4ccccc4)c4ccc(F)cc4)nc(Cl)nc32)[C@H](O)[C@@H]1O (stereo partly drawn) [Example 11, N^6-(2-(4-Fluorophenyl)-2-phenylethyl)-2-chloroadenosine] | > 100 mg/kg | –
Nc1nc(NCC(c2ccccc2)c2ccc(F)cc2)c2ncn([C@@H]3O[C@H](CO)[C@@H](O)[C@H]3O)c2n1 (stereo partly drawn) [Example 12, N^6-(2-(4-Fluorophenyl)-2-phenylethyl)-2-amino adenosine] | > 100 mg/kg | –
OC[C@H]1O[C@@H](n2cnc3c(NCC(c4ccccc4)c4ccc(F)cc4)ncnc32)[C@H](O)[C@@H]1O (stereo partly drawn) [Example 10, N^6-(2-(4-Fluorophenyl)-2-phenylethyl)adenosine] | > 100 mg/kg | –
OC[C@H]1O[C@@H](n2cnc3c(NC(c4ccccc4)c4ccccc4)ncnc32)[C@H](O)[C@@H]1O [Example 5, N^6 -Diphenylmethyladenosine] | > 100 mg/kg | –

Continued, in another order:

MAST ST LAD | Structure (SMILES) | further results
> 100 mg/kg | OC[C@H]1O[C@@H](n2cnc3c(NCC(c4ccc(Cl)cc4)c4ccc(Cl)cc4)ncnc32)[C@H](O)[C@@H]1O [Example 17, N^6-(2,2-Di(4-chlorophenyl)ethyl)adenosine] | –
> 30 mg/kg | COC(=O)C(CNc1ncnc2c1ncn2[C@@H]1O[C@H](CO)[C@@H](O)[C@H]1O)(c1ccccc1)c1ccccc1 [Example 24, N^6-(2-Carbomethoxy-2,2-diphenylethyl)adenosine] | –
> 100 mg/kg | CC(CNc1nc(N)nc2c1ncn2[C@@H]1O[C@H](CO)[C@@H](O)[C@H]1O)(c1ccccc1)c1ccccc1 [Example 21, N^6-(2,2-Diphenylpropyl)-2-aminoadenosine] | –
100 mg/kg | OC[C@H]1O[C@@H](n2cnc3c(NCC(O)(c4ccccc4)c4ccccc4)ncnc32)[C@H](O)[C@@H]1O [Example 22, N^6-(2,2-Diphenyl-2-hydroxyethyl)adenosine] | –
> 100 mg/kg | CC1(C)O[C@@H]2[C@H](O1)[C@@H](CO)O[C@H]2n1cnc2c(NCC(c3ccccc3)c3ccccc3)ncnc21 [Example 29, 2',3'-O-Isopropylidene-N^6-(2,2-diphenylethyl) adenosine] | –
> 100 mg/kg | Nc1nc(NCC(O)(c2ccccc2)c2ccccc2)c2ncn([C@@H]3O[C@H](CO)[C@@H](O)[C@H]3O)c2n1 [Example 23, N^6-(2,2-Diphenyl-2-hydroxyethyl)-2-aminoadenosine] | –
> 30 mg/kg | O=P(O)(O)OC[C@H]1O[C@@H](n2cnc3c(NCC(c4ccccc4)c4ccccc4)ncnc32)[C@H](O)[C@@H]1O [Example 28, N^6-(2,2-Diphenylethyl)adenosine-5'-phosphate] | –
> 30 mg/kg | Nc1nc(NCC(c2ccc(Cl)cc2)c2ccc(Cl)cc2)c2ncn([C@@H]3O[C@H](CO)[C@@H](O)[C@H]3O)c2n1 [Example 18] | –
> 100 mg/kg | OC[C@H]1O[C@@H](n2cnc3c(NCC(c4ccccc4)c4ccc(Cl)cc4)ncnc32)[C@H](O)[C@@H]1O (stereo partly drawn) [Example 15, N^6-(2-(4-Chlorophenyl)-2-phenylethyl)adenosine] | –
> 100 mg/kg | Nc1nc(NCC(c2ccccc2)c2ccc(Cl)cc2)c2ncn([C@@H]3O[C@H](CO)[C@@H](O)[C@H]3O)c2n1 (stereo partly drawn) [Example 16] | –
> 100 mg/kg | CC(=O)OC[C@H]1O[C@@H](n2cnc3c(NCC(c4ccccc4)c4ccccc4)nc(Cl)nc32)[C@H](OC(C)=O)[C@@H]1OC(C)=O [Example 27, 2',3',5'-Tri-O-acetyl-N^6-(2,2-diphenylethyl)-2-chloroadenosine] | –
> 100 mg/kg | CC(=O)OC[C@H]1O[C@@H](n2cnc3c(NCC(c4ccccc4)c4ccccc4)ncnc32)[C@H](OC(C)=O)[C@@H]1OC(C)=O [Example 25, 2',3',5'-Tri-O-acetyl-N^6-(2,2-diphenylethyl)adenosine] | –
> 100 mg/kg | O=C(OC[C@H]1O[C@@H](n2cnc3c(NCC(c4ccccc4)c4ccccc4)ncnc32)[C@H](OC(=O)c2ccccc2)[C@@H]1OC(=O)c1ccccc1)c1ccccc1 [Example 26, 2',3',5'-Tri-O-benzoyl-N^6-(2,2-diphenylethyl) adenosine] | –
30 mg/kg | COc1ccc(C(CNc2ncnc3c2ncn3[C@@H]2O[C@H](CO)[C@@H](O)[C@H]2O)c2ccccc2)cc1 (stereo partly drawn) [Example 19, N^6-(2-(4-Methoxyphenyl)-2-phenylethyl)adenosine] | –
